Source: patent US20200115698A1, “PHARMACEUTICAL COMBINATION FOR TREATMENT OF FABRY DISEASE AND USE THEREOF” (MEIJI PHARMACEUTICAL UNIVERSITY, priority 2017, published 2020)

T1: α-NAGA mutant (SEQ ID NO:8) (Homo sapiens, UniProt P17050, A191L/S188E)
T1 sequence (P17050 with tags, fused parts or gaps S188E/A191L): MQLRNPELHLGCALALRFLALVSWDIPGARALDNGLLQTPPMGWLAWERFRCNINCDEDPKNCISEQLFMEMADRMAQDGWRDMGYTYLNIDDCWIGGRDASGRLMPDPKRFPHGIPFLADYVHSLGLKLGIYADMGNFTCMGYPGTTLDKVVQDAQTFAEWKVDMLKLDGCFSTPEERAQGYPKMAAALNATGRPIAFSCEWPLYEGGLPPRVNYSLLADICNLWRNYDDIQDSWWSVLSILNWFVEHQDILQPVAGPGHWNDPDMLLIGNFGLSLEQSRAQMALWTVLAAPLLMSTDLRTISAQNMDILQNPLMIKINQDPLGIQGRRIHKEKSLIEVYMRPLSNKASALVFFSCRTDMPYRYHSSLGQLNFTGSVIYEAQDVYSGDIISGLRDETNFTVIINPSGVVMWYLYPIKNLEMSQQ

T2: α-NAGA mutant (Homo sapiens, UniProt P17050, A191L/S188E)
T2 sequence (P17050 with tags, fused parts or gaps S188E/A191L): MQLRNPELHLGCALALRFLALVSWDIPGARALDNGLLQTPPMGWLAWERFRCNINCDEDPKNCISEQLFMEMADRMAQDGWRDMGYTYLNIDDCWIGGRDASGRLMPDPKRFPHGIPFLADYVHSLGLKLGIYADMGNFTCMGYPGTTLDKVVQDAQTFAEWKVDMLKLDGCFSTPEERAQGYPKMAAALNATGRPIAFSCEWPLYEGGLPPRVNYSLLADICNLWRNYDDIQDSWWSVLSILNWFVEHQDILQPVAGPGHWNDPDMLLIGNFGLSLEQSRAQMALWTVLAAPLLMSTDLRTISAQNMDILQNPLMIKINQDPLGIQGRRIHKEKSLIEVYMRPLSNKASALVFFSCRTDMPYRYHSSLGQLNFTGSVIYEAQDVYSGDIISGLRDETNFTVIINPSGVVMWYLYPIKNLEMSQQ


Columns and labels:
[1] = target: T1, α-NAGA mutant (SEQ ID NO:8); assay: Screening of inhibitor (1): remaining enzyme activity of α-NAGA mutant with 4-methylumbelliferyl α-D-galactopyranoside; type: biochemical; settings: 400 μM compound, pH 4.6, 37° C., 30 minutes
Description: The screening of inhibitor was carried out as follows: An inhibitor candidate compound dissolved in purified water or DMSO was added to 20 ng of an α-NAGA mutant (SEQ ID NO:8) and 4 mM 4-methylumbelliferylα-D-galactopyranoside dissolved in 0.1 M phosphate-citrate buffer (pH 4.6) such that a concentration of the inhibitor candidate compound became 0.8, 1, or 400 μM, and the mixture thus obtained was caused to react at 37° C. for 30 minutes (the total amount was 50 μl). After the reaction, 950 μl of 0.2 M glycine buffer (pH 10.7) was added to stop the reaction. Then, released 4-methylumbelliferone was measured at an excitation wavelength of 355 nm and at a fluorescence wavelength of 460 nm with use of Wallac 1420 ARVO MX Multilabel Counter. Remaining enzyme activity was calculated based on the assumption that an enzyme activity value obtained in a case where purified water or DMSO is added instead of the inhibitor candidate compound is 100%.

α-NAGA mutant [2] = target: T2, α-NAGA mutant; assay: Screening of inhibitor (2): inhibition of enzyme activity of α-NAGA mutant; type: biochemical; settings: 0.1, 1, or 10 μM compound, pH 4.6, 37° C., 30 minutes; FIG. 1
Description: The second screening was carried out as follows: DGJ, GBS, N-C-DGJ, N-DGJ, or N-HE-DGJ dissolved in purified water or DMSO was added to 25 ng of an α-NAGA mutant and 4 mM 4-methylumbelliferylα-D-galactopyranoside dissolved in 0.1 M phosphate-citrate buffer (pH 4.6) such that a concentration of DGJ, GBS, N-C-DGJ, N-DGJ, or N-HE-DGJ became 0.1, 1, or 10 μM, and the mixture thus obtained was caused to react at 37° C. for 30 minutes (the total amount was 50 μl). After the reaction was finished, 950 μl of 0.2 M glycine buffer (pH 10.7) was added to stop the reaction. Then, released 4-methylumbelliferone was measured at an excitation wavelength of 355 nm and at a fluorescence wavelength of 460 nm with use of Wallac 1420 ARVO MX Multilabel Counter. Remaining enzyme activity was calculated based on the assumption that an enzyme activity value obtained in a case where purified water or DMSO is added instead of the inhibitor candidate compound is 100%. FIG. 1 is a view illustrating inhibition of enzyme activity of an α-NAGA mutant by DGJ.

α-NAGA mutant [3] = target: T2, α-NAGA mutant; assay: Calculation of inhibition constant Ki (Lineweaver-Burk plot); type: biochemical; settings: substrate 1-8 mM; DGJ 100-400 nM, GBS 200-800 nM; pH 4.6; FIG. 2
Description: Enzymatic analysis was carried out by using, as a reaction liquid, 50 ng of an α-NAGA mutant and 0.1 M phosphate-citrate buffer (pH 4.6) in which a 4-methylumbelliferylα-D-galactopyranoside substrate was dissolved at any of concentrations (1, 2, 4, 6, and 8 mM) (the total amount was 50 μl). In measuring inhibitory activity, reaction was carried out with a reaction liquid which contained DGJ at a concentration of 100, 200, or 400 nM or GBS at a concentration of 200, 400, or 800 nM. After the reaction was carried out at 37° C. for 10 minutes, 950 μl of 0.2 M glycine buffer (pH 10.7) was added to stop the reaction. Then, released 4-methylumbelliferone was measured at an excitation wavelength of 355 nm and at a fluorescence wavelength of 460 nm with use of Wallac 1420 ARVO MX Multilabel Counter. From these values, a Lineweaver-Burk plot was prepared and an inhibition constant Ki was calculated from slopes in the plot which correspond to respective concentrations of the inhibitor.

[4] = tested on: Fabry disease model mouse; settings: Fabry disease model mouse to which the α-NAGA mutant has been administered; cited from earlier work

Row | inhibition effect on α-NAGA mutant (remaining enzyme activity) [1] | Molecule | inhibition of enzyme activity of an α-NAGA mutant (remaining enzyme activity) (α-NAGA mutant [2]) | inhibition pattern from inhibition constant Ki (α-NAGA mutant [3]) | degradation of Gb3 and Lyso-Gb3 accumulated in organs [4]
1 | the inhibition effect was seen | O=S(=O)(O)C1NC(CO)C(O)C(O)C1O (stereo not shown) [GBS, galactostatin bisulfite] | had the effect of inhibiting activity of an α-NAGA mutant | inhibitory activity by competitive inhibition | 
2 |  | α-NAGA mutant: mutant human α-N-acetylgalactosaminidase, serine 188 to glutamic acid and alanine 191 to leucine, having α-galactosidase activity (SEQ ID NO:8 used) (protein) MQLRNPELHLGCALALRFLALVSWDIPGARALDNGLLQTPPMGWLAWERFRCNINCDEDPKNCISEQLFMEMADRMAQDGWRDMGYTYLNIDDCWIGGRDASGRLMPDPKRFPHGIPFLADYVHSLGLKLGIYADMGNFTCMGYPGTTLDKVVQDAQTFAEWKVDMLKLDGCFSTPEERAQGYPKMAAALNATGRPIAFSCEWPLYEGGLPPRVNYSLLADICNLWRNYDDIQDSWWSVLSILNWFVEHQDILQPVAGPGHWNDPDMLLIGNFGLSLEQSRAQMALWTVLAAPLLMSTDLRTISAQNMDILQNPLMIKINQDPLGIQGRRIHKEKSLIEVYMRPLSNKASALVFFSCRTDMPYRYHSSLGQLNFTGSVIYEAQDVYSGDIISGLRDETNFTVIINPSGVVMWYLYPIKNLEMSQQ |  |  | Gb3 and Lyso-Gb3 which are accumulated in organs are degraded
